The source made the active and inactive calls. The rule behind the calls is not given here.
Tests used:
Cytochrome P450 3A4 = Cytochrome P450 3A4 (Homo sapiens, UniProt P08684); assay: Inhibition of human recombinant CYP3A4 using Luciferin-IPA as substrate incubated for 30 mins in presence of NADPH by luminescence based assay; type: ADME
MCF7 [1] = assay: Antitumor activity against human MCF7 cells implanted in BALB/c mouse assessed as reduction in tumor formation ratio administered drug pretreated cells subcutaneously and observed after 2 weeks; type: functional, cell-based; conditions: route sc
MCF7 [2] = assay: Antiproliferative activity against human MCF7 cells assessed as decrease in spheroid size at 3.2 to 51.2 uM incubated for 10 days; type: functional, cell-based; conditions: dose 3.2-51.2 µM, time 10.0 day
MDA-MB-231 [3] = assay: Inhibition of cell stemness in human MDA-MB-231 cells assessed as reduction in OCT3 expression at 0.8 to 51.2 uM by western blot analysis; type: functional, cell-based; conditions: dose 0.8-51.2 µM
MDA-MB-231 [4] = assay: Antitumor activity against human MDA-MB-231 cells implanted in BALB/c mouse assessed as change in tumor weight administered drug pretreated cells subcutaneously and observed after 2 weeks; type: functional, cell-based; conditions: route sc
MDA-MB-231 [5] = assay: Antitumor activity against human MDA-MB-231 cells implanted in BALB/c mouse assessed as decrease in ALDH1A1 expression administered drug pretreated cells subcutaneously and observed after 2 weeks by immunohistochemistry; type: functional, cell-based; conditions: route sc
MCF7 [6] = assay: Antitumor activity against human MCF7 cells implanted in BALB/c mouse assessed as change in tumor weight administered drug pretreated cells subcutaneously and observed after 2 weeks; type: functional, cell-based; conditions: route sc
Cytochrome P450 2D6 = Cytochrome P450 2D6 (Homo sapiens, UniProt P10635); assay: Inhibition of human recombinant CYP2D6 using Luciferin-ME EGE as substrate incubated for 30 mins in presence of NADPH by luminescence based assay; type: ADME
Sequence of Cytochrome P450 2D6 (P10635 whole entry): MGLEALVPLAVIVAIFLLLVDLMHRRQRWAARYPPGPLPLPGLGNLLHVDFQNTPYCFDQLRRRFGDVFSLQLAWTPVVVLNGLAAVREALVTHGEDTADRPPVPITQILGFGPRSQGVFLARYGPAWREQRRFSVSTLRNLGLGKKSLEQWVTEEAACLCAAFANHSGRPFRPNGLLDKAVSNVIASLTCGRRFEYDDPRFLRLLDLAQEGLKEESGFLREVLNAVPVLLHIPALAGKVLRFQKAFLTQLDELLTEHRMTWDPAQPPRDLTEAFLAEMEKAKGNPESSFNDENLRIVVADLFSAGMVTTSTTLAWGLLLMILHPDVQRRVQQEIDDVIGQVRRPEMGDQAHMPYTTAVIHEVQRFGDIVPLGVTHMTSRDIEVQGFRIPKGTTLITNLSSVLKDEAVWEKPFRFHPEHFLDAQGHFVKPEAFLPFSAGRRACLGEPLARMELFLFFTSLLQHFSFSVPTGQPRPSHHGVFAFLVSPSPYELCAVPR

Cytochrome P450 2C9 = Cytochrome P450 2C9 (Homo sapiens, UniProt P11712); assay: Inhibition of human recombinant CYP2C9 using Luciferin CEE as substrate incubated for 30 mins in presence of NADPH by luminescence based assay; type: ADME
Sequence of Cytochrome P450 2C9 (P11712 whole entry): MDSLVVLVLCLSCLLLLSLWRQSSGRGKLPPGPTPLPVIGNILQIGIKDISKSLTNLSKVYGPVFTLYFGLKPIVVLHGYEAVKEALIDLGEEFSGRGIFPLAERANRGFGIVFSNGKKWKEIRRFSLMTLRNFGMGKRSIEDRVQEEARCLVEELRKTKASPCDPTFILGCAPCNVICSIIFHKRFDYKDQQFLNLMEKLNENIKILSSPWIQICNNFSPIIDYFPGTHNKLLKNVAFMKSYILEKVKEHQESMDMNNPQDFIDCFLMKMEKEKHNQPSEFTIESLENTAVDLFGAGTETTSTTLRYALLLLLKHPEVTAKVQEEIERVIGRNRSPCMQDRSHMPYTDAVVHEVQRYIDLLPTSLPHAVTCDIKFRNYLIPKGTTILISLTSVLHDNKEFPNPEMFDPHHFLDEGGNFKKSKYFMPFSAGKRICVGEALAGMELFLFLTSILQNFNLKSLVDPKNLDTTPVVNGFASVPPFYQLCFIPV

MDA-MB-231 [7] = assay: Inhibition of cell invasion of human MDA-MB-231 cells at 0.8 to 51.2 uM incubated for 24 hrs by transwell invasion assay; type: functional, cell-based; conditions: dose 0.8-51.2 µM
MDA-MB-231 [8] = assay: Inhibition of cell stemness in human MDA-MB-231 cells assessed as reduction in P-gP expression at 0.8 to 51.2 uM by western blot analysis; type: functional, cell-based; conditions: dose 0.8-51.2 µM
MDA-MB-231 [9] = assay: Antitumor activity against human MDA-MB-231 cells implanted in BALB/c mouse assessed as decrease in Ki67 expression administered drug pretreated cells subcutaneously and observed after 2 weeks by immunohistochemistry; type: functional, cell-based; conditions: route sc
MCF7 [10] = assay: Antitumor activity against human MCF7 cells implanted in BALB/c mouse assessed as decrease in Ki67 expression administered drug pretreated cells subcutaneously and observed after 2 weeks by immunohistochemistry; type: functional, cell-based; conditions: route sc
MCF7 [11] = assay: Inhibition of cell stemness in human MCF7 cells assessed as reduction in OCT3 expression at 0.8 to 51.2 uM by western blot analysis; type: functional, cell-based; conditions: dose 0.8-51.2 µM
MCF7 [12] = assay: Antiproliferative activity against human MCF7 cells assessed as decrease in spheroid number at 3.2 to 51.2 uM incubated for 10 days; type: functional, cell-based; conditions: dose 3.2-51.2 µM, time 10.0 day
MDA-MB-231 [13] = assay: Antitumor activity against human MDA-MB-231 cells implanted in BALB/c mouse assessed as change in stem cell frequency administered drug pretreated cells subcutaneously and observed after 2 weeks by colligation test; type: functional, cell-based; conditions: route sc
MDA-MB-231 [14] = assay: Inhibition of cell stemness in human MDA-MB-231 cells assessed as reduction in SOX2 expression at 0.8 to 51.2 uM by western blot analysis; type: functional, cell-based; conditions: dose 0.8-51.2 µM
MCF7 [15] = assay: Inhibition of cell invasion of human MCF7 cells at 0.8 to 51.2 uM incubated for 48 hrs by transwell invasion assay; type: functional, cell-based; conditions: dose 0.8-51.2 µM
MDA-MB-231 [16] = assay: Antitumor activity against human MDA-MB-231 cells implanted in BALB/c mouse assessed as reduction in tumor formation ratio administered drug pretreated cells subcutaneously and observed after 2 weeks; type: functional, cell-based; conditions: route sc
[17] = Stability in mouse plasma assessed as half life at 40 uM incubated upto 5 hrs by LC-MS/MS analysis; type: ADME, cell-free
MDA-MB-231 [18] = assay: Antitumor activity against human MDA-MB-231 cells implanted in BALB/c mouse assessed as decrease in OCT4 expression administered drug pretreated cells subcutaneously and observed after 2 weeks by immunohistochemistry; type: functional, cell-based; conditions: route sc
MCF7 [19] = assay: Antitumor activity against human MCF7 cells implanted in BALB/c mouse assessed as reduction in stem cell frequency administered drug pretreated cells subcutaneously and observed after 2 weeks; type: functional, cell-based; conditions: route sc
[20] = Toxicity in mouse assessed as body weight loss at 2000 mg/kg,po administered for 7 days; type: organism-based; conditions: in vivo, 168 h, time 7 day
MCF7 [21] = assay: Inhibition of cell stemness in human MCF7 cells assessed as reduction in SOX2 expression at 0.8 to 51.2 uM by western blot analysis; type: functional, cell-based; conditions: dose 0.8-51.2 µM
MDA-MB-231 [22] = assay: Inhibition of cell stemness in human MDA-MB-231 cells assessed as reduction in Nanog expression at 0.8 to 51.2 uM by western blot analysis; type: functional, cell-based; conditions: dose 0.8-51.2 µM
MCF7 [23] = assay: Antiproliferative activity against human MCF7 cells assessed as cell growth inhibition incubated for 72 hrs by MTT assay; type: functional, cell-based; conditions: MCF7, 72 h
MDA-MB-231 [24] = assay: Inhibition of cell stemness in human MDA-MB-231 cells assessed as reduction in OCT4 expression at 0.8 to 51.2 uM by western blot analysis; type: functional, cell-based; conditions: dose 0.8-51.2 µM
MDA-MB-231 [25] = assay: Inhibition of cell stemness in human MDA-MB-231 cells assessed as reduction in ALDH1A1 expression at 0.8 to 51.2 uM by western blot analysis; type: functional, cell-based; conditions: dose 0.8-51.2 µM
MCF7 [26] = assay: Inhibition of cell stemness in human MCF7 cells assessed as reduction in ALDH1A1 expression at 0.8 to 51.2 uM by western blot analysis; type: functional, cell-based; conditions: dose 0.8-51.2 µM
MCF7 [27] = assay: Antitumor activity against human MCF7 cells implanted in BALB/c mouse assessed as decrease in OCT4 expression administered drug pretreated cells subcutaneously and observed after 2 weeks by immunohistochemistry; type: functional, cell-based; conditions: route sc
MDA-MB-231 [28] = assay: Inhibition of cell migration of human MDA-MB-231 cells at 0.8 to 51.2 uM incubated for 24 hrs by wound healing assay; type: functional, cell-based; conditions: dose 0.8-51.2 µM
MDA-MB-231 [29] = assay: Antiproliferative activity against human MDA-MB-231 cells assessed as cell growth inhibition incubated for 72 hrs by MTT assay; type: functional, cell-based; conditions: MDA-MB-231, 72 h
MCF7 [30] = assay: Inhibition of cell migration of human MCF7 cells at 0.8 to 51.2 uM incubated for 48 hrs by wound healing assay; type: functional, cell-based; conditions: dose 0.8-51.2 µM
MDA-MB-231 [31] = assay: Antiproliferative activity against human MDA-MB-231 cells assessed as decrease in spheroid size at 3.2 to 51.2 uM incubated for 10 days; type: functional, cell-based; conditions: dose 3.2-51.2 µM, time 10.0 day
MDA-MB-231 [32] = assay: Antiproliferative activity against human MDA-MB-231 cells assessed as decrease in CD44+/CD24- cell population at 0.8 to 51.2 uM incubated for 30 mins by flow cytometry analysis; type: functional, cell-based; conditions: dose 0.8-51.2 µM
[33] = Stability in mouse liver microsomes assessed as half life at 1 uM incubated upto 60 mins in presence of NADPH by LC-MS/MS analysis; type: ADME, Microsome
MDA-MB-231 [34] = assay: Antiproliferative activity against human MDA-MB-231 cells assessed as decrease in spheroid number at 3.2 to 51.2 uM incubated for 10 days; type: functional, cell-based; conditions: dose 3.2-51.2 µM, time 10.0 day
MCF7 [35] = assay: Inhibition of cell stemness in human MCF7 cells assessed as reduction in P-gP expression at 0.8 to 51.2 uM by western blot analysis; type: functional, cell-based; conditions: dose 0.8-51.2 µM
MCF7 [36] = assay: Antitumor activity against human MCF7 cells implanted in BALB/c mouse assessed as change in stem cell frequency administered drug pretreated cells subcutaneously and observed after 2 weeks by colligation test; type: functional, cell-based; conditions: route sc
MCF7 [37] = assay: Inhibition of cell stemness in human MCF7 cells assessed as reduction in OCT4 expression at 0.8 to 51.2 uM by western blot analysis; type: functional, cell-based; conditions: dose 0.8-51.2 µM
MCF7 [38] = assay: Antitumor activity against human MCF7 cells implanted in BALB/c mouse assessed as decrease in ALDH1A1 expression administered drug pretreated cells subcutaneously and observed after 2 weeks by immunohistochemistry; type: functional, cell-based; conditions: route sc
MCF7 [39] = assay: Antiproliferative activity against human MCF7 cells assessed as decrease in CD44+/CD24- cell population at 0.8 to 51.2 uM incubated for 30 mins by flow cytometry analysis; type: functional, cell-based; conditions: dose 0.8-51.2 µM
MCF7 [40] = assay: Inhibition of cell stemness in human MCF7 cells assessed as reduction in Nanog expression at 0.8 to 51.2 uM by western blot analysis; type: functional, cell-based; conditions: dose 0.8-51.2 µM
MDA-MB-231 [41] = assay: Antitumor activity against human MDA-MB-231 cells implanted in BALB/c mouse assessed as reduction in stem cell frequency administered drug pretreated cells subcutaneously and observed after 2 weeks; type: functional, cell-based; conditions: route sc
Cytochrome P450 4Z1 [42] = molecular target: T1, Cytochrome P450 4Z1 (Homo sapiens, UniProt Q86W10); assay: Inhibition of CYP4Z1 in human HEK293T cells using Luciferin-BE as substrate at 1 uM incubated for 30 mins in presence of NADPH by luminescence based assay relative to control; type: ADME, cell-based; conditions: HEK-293T, 0.5 h
T1 sequence (Q86W10 whole entry): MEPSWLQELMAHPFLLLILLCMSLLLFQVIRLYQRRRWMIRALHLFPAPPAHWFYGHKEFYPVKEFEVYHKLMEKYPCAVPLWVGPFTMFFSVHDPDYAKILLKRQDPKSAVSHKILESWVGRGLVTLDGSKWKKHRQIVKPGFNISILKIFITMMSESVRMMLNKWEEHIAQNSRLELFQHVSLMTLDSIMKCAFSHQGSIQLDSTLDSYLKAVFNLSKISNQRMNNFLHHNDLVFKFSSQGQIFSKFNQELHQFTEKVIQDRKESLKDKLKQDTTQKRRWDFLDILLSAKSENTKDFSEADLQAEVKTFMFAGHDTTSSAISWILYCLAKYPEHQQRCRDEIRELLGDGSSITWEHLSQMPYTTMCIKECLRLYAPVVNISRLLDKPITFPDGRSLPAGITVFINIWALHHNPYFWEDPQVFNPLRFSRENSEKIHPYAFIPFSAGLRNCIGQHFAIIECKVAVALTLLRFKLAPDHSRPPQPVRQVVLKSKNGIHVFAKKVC

Cytochrome P450 4Z1 [43] = molecular target: T1, Cytochrome P450 4Z1; assay: Inhibition of CYP4Z1 in human HEK293T cells using Luciferin-BE as substrate at 10 uM incubated for 30 mins in presence of NADPH by luminescence based assay relative to control; type: ADME, cell-based; conditions: HEK-293T, 0.5 h

Sequence of Cytochrome P450 3A4 (P08684 whole entry): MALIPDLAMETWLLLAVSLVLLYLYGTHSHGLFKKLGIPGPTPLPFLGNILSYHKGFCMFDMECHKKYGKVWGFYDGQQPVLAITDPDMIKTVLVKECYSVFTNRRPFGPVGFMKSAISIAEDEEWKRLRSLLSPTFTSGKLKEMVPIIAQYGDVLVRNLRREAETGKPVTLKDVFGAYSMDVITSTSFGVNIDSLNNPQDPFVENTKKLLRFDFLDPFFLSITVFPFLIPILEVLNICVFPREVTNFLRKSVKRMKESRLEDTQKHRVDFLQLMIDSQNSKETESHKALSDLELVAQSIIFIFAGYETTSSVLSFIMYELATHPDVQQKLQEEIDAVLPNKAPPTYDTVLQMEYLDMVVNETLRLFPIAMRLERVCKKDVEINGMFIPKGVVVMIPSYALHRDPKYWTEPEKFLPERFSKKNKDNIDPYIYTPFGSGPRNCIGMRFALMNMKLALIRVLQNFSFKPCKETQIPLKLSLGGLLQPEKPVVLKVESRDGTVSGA

CCOC(=O)CCCc1ccc(N/C=N/O)cc1
IC50 (Cytochrome P450 3A4): > 10000 nM
Activity (MCF7 [1]): Active
Activity (MCF7 [2]): Dose-Dependent Effect
inhibition (MDA-MB-231 [3]): Dose-Dependent Effect
Activity (MDA-MB-231 [4]): inactive
Activity (MDA-MB-231 [5]): Active
Activity (MCF7 [6]): inactive
IC50 (Cytochrome P450 2D6): > 10000 nM
IC50 (Cytochrome P450 2C9): > 10000 nM
inhibition (MDA-MB-231 [7]): Active
inhibition (MDA-MB-231 [8]): Dose-Dependent Effect
Activity (MDA-MB-231 [9]): Active
Activity (MCF7 [10]): Active
inhibition (MCF7 [11]): Dose-Dependent Effect
Activity (MCF7 [12]): Dose-Dependent Effect
Activity (MDA-MB-231 [13]): Active
inhibition (MDA-MB-231 [14]): Dose-Dependent Effect
inhibition (MCF7 [15]): Active
Activity (MDA-MB-231 [16]): Active
half-life at 40 µM [17]: 24.6 min
Activity (MDA-MB-231 [18]): Active
Activity (MCF7 [19]): Active
Activity [20]: Non-Toxic
inhibition (MCF7 [21]): Dose-Dependent Effect
inhibition (MDA-MB-231 [22]): Dose-Dependent Effect
IC50 (MCF7 [23]): 483 nM
inhibition (MDA-MB-231 [24]): Dose-Dependent Effect
inhibition (MDA-MB-231 [25]): Dose-Dependent Effect
inhibition (MCF7 [26]): Dose-Dependent Effect
Activity (MCF7 [27]): Active
inhibition (MDA-MB-231 [28]): Dose-Dependent Effect
IC50 (MDA-MB-231 [29]): 483 nM
inhibition (MCF7 [30]): Dose-Dependent Effect
Activity (MDA-MB-231 [31]): Dose-Dependent Effect
Activity (MDA-MB-231 [32]): Dose-Dependent Effect
half-life at 1 µM [33]: 12.8 min
Activity (MDA-MB-231 [34]): Dose-Dependent Effect
inhibition (MCF7 [35]): Dose-Dependent Effect
Activity (MCF7 [36]): Active
inhibition (MCF7 [37]): Dose-Dependent Effect
Activity (MCF7 [38]): Active
Activity (MCF7 [39]): Dose-Dependent Effect
inhibition (MCF7 [40]): Dose-Dependent Effect
Activity (MDA-MB-231 [41]): Active

O=C(O)Cc1ccc(N/C=N/O)cc1
inhibition at 1 µM (Cytochrome P450 4Z1 [42]): 36.5%
inhibition at 10 µM (Cytochrome P450 4Z1 [43]): 54.3%

Source: ChEMBL document CHEMBL5236600, “Identification of a Novel Potent CYP4Z1 Inhibitor Attenuating the Stemness of Breast Cancer Cells through Lead Optimization” (J Med Chem, 2022)
